# How the values were obtained:
# Type in all cases: cell-based
# [1] = test system: H 460 (lung carcinoma); experiment: MTT proliferation assay, H 460 cells; settings: Homo sapiens, NCI-H460, 72 hours incubation, read-out: IC50 (concentration that causes 50% growth inhibition), H 460
# Description: (§1) The described assay was used to test the effects of compounds on the proliferation of various human tumor cell lines, whereby cytostatic and cytotoxic effects on cells can be differentiated. The experiments were carried out on human cell lines, which were derived from 6 tumor types. The following cell lines were used: MCF-7 (breast carcinoma), SW 620 (colon carcinoma), HCT 116 (colon carcinoma), MOLT-4 (acute lymphoblastic leukemia), H 460 (lung carcinoma), HeLa (cervical carcinoma), MiaPaCa-2 (pancreatic carcinoma).
# (§2) MCF-7, SW 620, HCT 116, HeLa, MiaPaCa-2 and H 460 cell lines were cultured as monolayers and maintained in Dulbecco's modified Eagle medium (DMEM), while MOLT-4 cells were cultured in suspension in nutritive medium RPMI 1640, both supplemented with 10% fetal bovine serum (FBS), 2 mM L-glutamine, 100 U/ml penicillin and 100 μg/ml streptomycin in a humidified atmosphere with 5% CO2 at 37° C.
# (§3) The panel cell lines were inoculated onto a series of standard 96-well microtiter plates on day 0, at 1×10^4 to 3×10^4 cells/ml, depending on the doubling times of the specific cell line. Test agents were added next day to the cell lines in five consecutive 10-fold dilutions (10^−8 to 10^−4 M) and incubated for a further 72 hours. Working dilutions were freshly prepared on the day of testing. The solvent (DMSO) was also tested for eventual inhibitory activity by adjusting its concentration to be the same as in working concentrations. After 72 hours of incubation the cell growth rate was evaluated by performing the MTT assay (Mossman, Methods Immunol, 1983, 65, 55-63.), which detects dehydrogenase activity in viable cells. The MTT Cell Proliferation Assay is a colorimetric assay system, which measures the reduction of a tetrazolium component (MTT) into an insoluble formazan produced by mitochondria of viable cells. For this purpose the substance treated medium was discarded and MTT was added to each well in concentration of 20 μg/40 μl. After four hours of incubation the precipitates were dissolved in 160 μl of dimethylsulphoxide (DMSO). The absorbance (OD, optical density) was measured on a microplate reader at 570 nm. The absorbance is directly proportional to the cell viability. The percentage of growth (PG) of the cell lines was calculated according to one of the following two equations (according to the National Cancer Institute protocols, www.dtp.nci.nih.gov): If (mean ODtest−mean ODtzero)≧0 then PG=100×(mean ODtest−mean ODtzero)/(mean ODctrl−mean ODtzero). If (mean ODtest−mean ODtzero)<0 then: PG=100×(mean ODtest−mean ODtzero)/ODtzero.
# (§4) Mean ODtzero=the average of optical density measurements before exposure of cells to the test compound.
# (§5) Mean ODtest=the average of optical density measurements after the desired period of time.
# (§6) Mean ODctrl=the average of optical density measurements after the desired period of time with no exposure of cells to the test compound.
# (§7) Each test point was performed in quadruplicate in three individual experiments. The results were expressed as IC50, a concentration necessary for 50% of proliferation inhibition. Each result is a mean value from three separate experiments. The IC50 measures the growth inhibitory power of the test agent and represents the concentration that causes 50% growth inhibition. The IC50 is calculated from dose-response curves using linear regression analysis by fitting the test concentrations that give PG values above and below the respective reference value (e.g. 50% of inhibition for IC50). Therefore, a “real” value for any of the response parameters is obtained only if at least one of the tested drug concentrations falls above, and likewise at least one falls below the respective reference value. If however, for a given cell line or test agent all of the tested concentrations produce PGs exceeding the respective reference level of effect (e.g. PG value of 50%), then the highest tested concentration is assigned as the default value. […]
# [2] = test system: MCF-7 (breast carcinoma); experiment: MTT proliferation assay, MCF-7 cells; settings: Homo sapiens, MCF7, 72 hours incubation, read-out: IC50 (concentration that causes 50% growth inhibition), MCF-7
# Description: as §1, §2, §3, §4, §5, §6, §7
# [3] = test system: MOLT-4 (acute lymphoblastic leukemia); experiment: MTT proliferation assay, MOLT-4 cells; settings: Homo sapiens, 72 hours incubation, read-out: IC50 (concentration that causes 50% growth inhibition), MOLT-4
# Description: as §1, §2, §3, §4
# (§8) Mean ODtest=the average of optical density measurements after the desired period of time. […]
# [4] = test system: SW 620 (colon carcinoma); experiment: MTT proliferation assay, SW 620 cells; settings: Homo sapiens, 72 hours incubation, read-out: IC50 (concentration that causes 50% growth inhibition), SW 620
# Description: as §1, §2, §3, §4, §5, §6, §7
# [5] = test system: HCT 116 (colon carcinoma); experiment: MTT proliferation assay, HCT 116 cells; settings: Homo sapiens, 72 hours incubation, read-out: IC50 (concentration that causes 50% growth inhibition), HCT 116
# Description: as §1, §2, §3, §4, §8
# [6] = test system: HeLa (cervical carcinoma); experiment: MTT proliferation assay, HeLa cells; settings: Homo sapiens, 72 hours incubation, read-out: IC50 (concentration that causes 50% growth inhibition), Hela
# Description: as §1, §2, §3, §4, §5, §6, §7
# [7] = test system: various human tumor cell lines; experiment: MTT proliferation assay, panel of tumor cell lines; settings: up to maximal tested concentration (c=100 μM) during 72 hours, all cell lines of Table 1
# Description: as §1, with “carcinoma). […]” for “carcinoma).”
# The panel cell lines were inoculated onto a series of standard 96-well microtiter plates on day 0, at 1×10^4 to 3×10^4 cells/ml, depending on the doubling times of the specific cell line. […] After 72 hours of incubation the cell growth rate was evaluated by performing the MTT assay (Mossman, Methods Immunol, 1983, 65, 55-63.), which detects dehydrogenase activity in viable cells. […] The absorbance (OD, optical density) was measured on a microplate reader at 570 nm. The absorbance is directly proportional to the cell viability. The percentage of growth (PG) of the cell lines was calculated according to one of the following two equations (according to the National Cancer Institute protocols, www.dtp.nci.nih.gov): If (mean ODtest−mean ODtzero)≧0 then PG=100×(mean ODtest−mean ODtzero)/(mean ODctrl−mean ODtzero). […]
# [8] = test system: MiaPaCa-2 (pancreatic carcinoma); experiment: MTT proliferation assay, MiaPaCa-2 cells; settings: Homo sapiens, MIA PaCa-2, 72 hours incubation, read-out: IC50 (concentration that causes 50% growth inhibition), MiaPaCa-2
# Description: as §1, §2, §3, §4, §5, §6, §7
SMILES,IC50 [1],IC50 [2],IC50 [3],IC50 [4],IC50 [5],IC50 [6],IC50 [8],antiproliferative activity [7]
"O=C(CC12CC3CC(CC(C3)C1)C2)N1CCOCCOCCN(C(=O)CC23CC4CC(CC(C4)C2)C3)CCOCCOCC1 [Compound 7, N,N′-Bis[1-oxo-2-(1-adamantyl)ethyl]-4,13-diaza-18-crown-6]",14 ± 1 µM,5 ± 2 µM,6000 ± 6000 nM,12 ± 5 µM,6 µM,,,
"C1COCCOCCNCCOCCOCCN1 [Diaza-18-crown-6, diaza-18-crown-6, reference compound]",> 100 µM,> 100 µM,> 100000 nM,> 100 µM,> 100 µM,> 100 µM,> 100 µM,did not show any antiproliferative activity
"C1COCCN(CCC23CC4CC(CC(C4)C2)C3)CCOCCOCCN(CCC23CC4CC(CC(C4)C2)C3)CCO1 [Compound 5, N,N′-Bis[2-(1-adamantyl)ethyl]-4,13-diaza-18-crown-6]",4 ± 3 µM,4 ± 0.7 µM,,2.6 ± 1.9 µM,,2.3 ± 1.4 µM,1.7 ± 0.6 µM,
"C(CN1CCOCCOCCOCCOCCOCC1)CC12CC3CC(CC(C3)C1)C2 [Compound 2, N-[3-(1-adamantyl)propyl]-aza-18-crown-6]",15 ± 0.1 µM,6 ± 5 µM,,9 ± 3 µM,,14 ± 3 µM,11 ± 2 µM,
"O=C(CCC12CC3CC(CC(C3)C1)C2)N1CCOCCOCCOCCOCCOCC1 [Compound 4, N-[1-oxo-3-(1-adamantyl)propyl]-aza-18-crown-6]",72 ± 7 µM,17 ± 5 µM,,13 ± 2 µM,,28 ± 7 µM,30 ± 3.4 µM,
"O=C(CC12CC3CC(CC(C3)C1)C2)N1CCOCCOCCOCCOCCOCC1 [Compound 3, N-[1-oxo-2-(1-adamantyl)ethyl]-aza-18-crown-6]",> 100 µM,> 100 µM,,> 100 µM,,> 100 µM,> 100 µM,

# More lines, in order of falling IC50 [1], values ahead:
IC50 [1],IC50 [2],IC50 [3],IC50 [4],IC50 [5],IC50 [6],IC50 [8],SMILES,antiproliferative activity [7]
15 ± 0.6 µM,8 ± 4 µM,,9 ± 6 µM,,16 ± 0.5 µM,12 ± 0.6 µM,"C1COCCOCCN(CCC23CC4CC(CC(C4)C2)C3)CCOCCOCCO1 [Compound 1, N-[2-(1-adamantyl)ethyl]-aza-18-crown-6]",
11 ± 5 µM,2 ± 0.4 µM,3000 ± 500 nM,19 ± 16 µM,6 ± 4 µM,,,"O=C(CCC12CC3CC(CC(C3)C1)C2)N1CCOCCOCCN(C(=O)CCC23CC4CC(CC(C4)C2)C3)CCOCCOCC1 [Compound 8, N,N′-Bis[1-oxo-3-(1-adamantyl)propyl]-4,13-diaza-18-crown-6]",
0.2 ± 0.3 µM,1 ± 0.4 µM,1000 ± 1000 nM,1 ± 0.4 µM,0.4 ± 0.4 µM,,,"C(CN1CCOCCOCCN(CCCC23CC4CC(CC(C4)C2)C3)CCOCCOCC1)CC12CC3CC(CC(C3)C1)C2 [Compound 6, N,N″-Bis[3-(1-adamantyl)propyl]-4,13-diaza-18-crown-6]",
